Experimental data published in US12662473B2, “Inhibitors for programmed cell necrosis and preparation method therefor and use thereof” (SHANGHAI INSTITUTE OF ORGANIC CHEMISTRY, CHINESE ACADEMY OF …, priority 2019, dated 2026).
Where two headings read alike, the source gives them in different places.

How the values were obtained:
FADD−/− Jurkat cells = experiment: TNF-induced programmed cell necrosis inhibition, Cell Titer-Glo viability; assay type: cell-based; settings: Homo sapiens, Jurkat
From the text: (§1) The adopted biological assay protocol was: the programmed necroptosis effect of compounds on TNF-induced in FADD (Fas-Associated Death Domain) deficient Jurkat cells and L929 cells.
(§2) In order to verify the inhibitory effect of the compounds of the present invention on programmed cell necrosis at the cellular level, cell types closely related to the RIP1 pathway, namely FADD deficient Jurkat cells (human peripheral blood leukemia T cell line) and L929 cells, were selected. Two different stimulation methods were used: tumor necrosis factor (TNFα) used alone, or TNFα used in combination with mitochondria-derived cysteine aspartate activator (SMAC). Cells viability was calculated by detecting chemiluminescence values, and the biological activity of the compound for inhibiting programmed cell necrosis can be obtained.
(§3) Methods: FADD deficient Jurkat cells: FADD deficient Jurkat cells (human peripheral blood leukemia T cell line) were cultured in vitro. After growing to the logarithmic growth phase, the cells were collected, centrifuged at 1000 rpm for 5 min, the supernatant was discarded, and the cell concentration was adjusted to 2.5×10^5/mL. Cells were seeded into 384-well plates, 40 μl per well. 5 μL of Smac (50 nM) diluted in cell culture medium and 5 μL of each compound were added to the corresponding wells. After pretreatment at 37° C. for 1 h, 5 μL of TNFα (50 ng/mL) diluted in cell culture medium was added to each well of the stimulation group, and 5 μL of the culture medium was added to the control group. The plate was cultured in a cell incubator (37° C., 5% CO2) for 14 h, and 15 μl of Cell Titer-Glo solution was added to each well, then incubated for 30 min at room temperature, and intracellular ATP level was measured by detecting luminescence. The unstimulated DMSO control wells were taken as 100% cell viability. L929 cells: The L929 cells (mouse fibroblasts) were cultured in vitro, digested and diluted to 6.25×10^4/ml, and the cells were seeded into 384-well plates, 40 μl per well. The plate was placed in a cell incubator (37° C., 5% CO2) for 12 hours. 5 μL of Smac (500 nM) diluted in cell culture medium and 5 μL of each compound were added to the corresponding wells. After pretreatment at 37° C. for 1 h, 5 μL of TNFα (500 ng/mL) diluted in cell culture medium was added to each well of the stimulation group, and 5 μL of the culture medium was added to the control group. After the plate was cultured for 14 h in a cell incubator (37° C., 5% CO2), 15 μl of Cell Titer-Glo solution was added to each well. The plate was incubated at room temperature for 30 min, and intracellular ATP level was measured by detecting luminescence. The unstimulated DMSO control wells were taken as 100% cell viability. EC50 values of the compounds were calculated using Prism Graphpad statistical software.
FADD deficient Jurkat cells: FADD deficient Jurkat cells (human peripheral blood leukemia T cell line) were cultured in vitro. After growing to the logarithmic growth phase, the cells were collected, centrifuged at 1000 rpm for 5 min, the supernatant was discarded, and the cell concentration was adjusted to 2.5×10^5/mL. Cells were seeded into 384-well plates, 40 μl per well. 5 μL of Smac (50 nM) diluted in cell culture medium and 5 μL of each compound were added to the corresponding wells. After pretreatment at 37° C. for 1 h, 5 μL of TNFα (50 ng/mL) diluted in cell culture medium was added to each well of the stimulation group, and 5 μL of the culture medium was added to the control group. After the plate was cultured in a cell incubator (37° C., 5% CO2) for 14 h, 15 μl of Cell Titer-Glo solution was added to each well. The mixture was incubated for 30 min at room temperature, and intracellular ATP level was measured by detecting luminescence. The unstimulated DMSO control wells were taken as 100% cell viability.

L929 cells = experiment: as above; assay type: cell-based, mouse; settings: Mus musculus, read-out: EC50 inhibitory activity on programmed cell necrosis
From the text: as §1, §2, §3
L929 cells: The L929 cells (mouse fibroblasts) were cultured in vitro, digested and diluted to 6.25×10^4/ml, and the cells were seeded into 384-well plates, 40 μl per well. The plate was placed in a cell incubator (37° C., 5% CO2) for 12 hours. 5 μL of Smac (500 nM) diluted in cell culture medium and 5 μL of each compound were added to the corresponding wells. After pretreatment at 37° C. for 1 h, 5 μL of TNFα (500 ng/mL) diluted in cell culture medium was added to each well of the stimulation group, and 5 μL of the culture medium was added to the control group. After the plate was cultured for 14 h in a cell incubator (37° C., 5% CO2), and 15 μl of Cell Titer-Glo solution was added to each well, then incubated at room temperature for 30 min, and intracellular ATP level was measured by detecting luminescence. The unstimulated DMSO control wells were taken as 100% cell viability.

[1] = 14 h, TNFa + SM164, read-out: EC50 inhibitory activity on programmed cell necrosis
[2] = TNFa, read-out: EC50 inhibitory activity on programmed cell necrosis
[3] = L929, 14 h, L929 cells (mouse), TNFa + SM164

Compound | EC50 (FADD−/− Jurkat cells; [1]) [nM] | EC50 (FADD−/− Jurkat cells; [2]) [nM] | EC50 (L929 cells; [3]) [nM] | EC50 (L929 cells; L929, L929 cells (mouse), TNFa) [nM] | EC50 (L929 cells; L929, L929 cells (mouse), TNFa + SM164) [nM]
Cc1ccc(C2CCCN2C(=O)C(C)(C)Oc2ccc(Cl)cc2C(F)(F)F)cc1 (centres unmarked) [QY-4-67] | 5160 | 1330 | 3930 | 1380 | –
CC(C)(Oc1ccc(Cl)cc1F)C(=O)N1CCCC1c1cccc(C#N)c1 (centres unmarked) [QY-4-69] | 9380 | 1540 | 3630 | 650 | –
COc1cccc(C2CCCN2C(=O)C(C)(C)Oc2ccc(Cl)cc2F)c1 (centres unmarked) [QY-4-70] | > 10000 | > 10000 | > 10000 | 1780 | –
Cc1ccc(C2CCCN2C(=O)C(C)(C)Oc2ccc(Cl)cc2F)cc1 (centres unmarked) [QY-4-75] | 704 | 83 | 188 | 43 | –
CC(C)(Oc1ccc(Cl)cc1F)C(=O)N1CCCC1c1ccccc1F (centres unmarked) [QY-4-78] | 1100 | 205 | 724 | 156 | –
COc1ccc(C2CCCN2C(=O)C(C)(C)Oc2ccc(Cl)cc2F)cc1 (centres unmarked) [QY-4-87] | > 10000 | 2380 | > 10000 | 2400 | –
CC(C)(Oc1ccc(Cl)cc1F)C(=O)N1CCCC1c1ccc(C#N)cc1 (centres unmarked) [QY-4-88] | 4000 | 746 | 3100 | 1160 | –
CCc1ccc(C2CCCN2C(=O)C(C)(C)Oc2ccc(Cl)cc2)cc1 (centres unmarked) [QY-4-96] | 6930 | 1460 | 8130 | 2100 | –
CCc1ccc(C2CCCN2C(=O)C(C)(C)Oc2ccc(Cl)cc2F)cc1 (centres unmarked) [QY-4-99] | 9200 | 1450 | 9120 | 2510 | –
CC(C)c1ccc(C2CCCN2C(=O)C(C)(C)Oc2ccc(Cl)cc2F)cc1 (centres unmarked) [QY-5-1] | > 10000 | > 10000 | > 10000 | > 10000 | –
CN(C)c1ccc(C2CCCN2C(=O)C(C)(C)Oc2ccc(Cl)cc2F)cc1 (centres unmarked) [QY-5-4] | > 10000 | > 10000 | > 10000 | > 10000 | –
Cc1ccc([C@@H]2CCCN2C(=O)C(C)(C)Oc2ccc(Cl)cc2F)cc1 [QY-5-22, (S)-2-(4-Chloro-2-fluorophenoxy)-2-methyl-1-(2-(p-tolyl)pyrrolidin-1-yl)propan-1-one] | 683 | 98 | – | 62 | 262
CNC(=O)c1ccc(C2CCCN2C(=O)C(C)(C)Oc2ccc(Cl)cc2F)cc1 (centres unmarked) [QY-5-79] | 1060 | 9230 | > 10000 | > 10000 | –
CC(C)(Oc1ccc(Cl)cc1F)C(=O)N1CCCC1c1ccc(C(F)(F)F)cc1 (centres unmarked) [QY-5-83] | 7720 | 1290 | > 10000 | 8750 | –
CC(C)(Oc1ccc(Cl)cc1F)C(=O)N1CCCC1c1ccc(C(N)=O)cc1 (centres unmarked) [QY-5-85] | > 10000 | 5340 | > 10000 | > 10000 | –
Cc1ccc(C2CC=NN2C(=O)C(C)(C)Oc2ccc(Cl)cc2F)cc1 (centres unmarked) [QY-6-47] | 90 | 5 | 49 | 18 | –
CC(C)(Oc1ccc(Cl)cc1F)C(=O)N1CCC[C@H]1c1cc(F)cc(F)c1 [QY-6-60] | 707 | 17 | 402 | 130 | –
CC(C)(Oc1ccc(Cl)cc1F)C(=O)N1CCC[C@H]1c1ccc(F)c(F)c1 [QY-6-61] | 379 | 12 | 218 | 75 | –
CC(C)(Oc1ccc(Cl)cc1F)C(=O)N1CCC[C@H]1c1ccc(F)cc1 [QY-6-62] | 117 | 3 | 174 | 44 | –
CNC(=O)c1ccc(OC(C)(C)C(=O)N2CCCC2c2ccc(C)cc2)c(F)c1 (centres unmarked) [QY-6-63] | > 10000 | 4290 | 7800 | 3150 | –
CC(C)(Oc1ccc(Cl)cc1)C(=O)N1CCC[C@H]1c1ccccc1 [QY-6-83] | 613 | 56 | 323 | 40 | –
CC(C)(Oc1ccc(Cl)cc1F)C(=O)N1CCC[C@H]1c1ccccc1 [QY-6-84] | 439 | 27 | 216 | 25 | –
[2H]c1c([2H])c([C@]2([2H])CCCN2C(=O)C(C)(C)Oc2ccc(Cl)cc2F)c([2H])c([2H])c1C([2H])([2H])[2H] [QY-7-7] | 200 | 5 | 24 | 1 | –
COc1cc(OC(C)(C)C(=O)N2N=CCC2c2ccc(C)cc2)ccc1Cl (centres unmarked) [QY-7-101] | 1100 | 630 | 10 | 11 | –
CC(C)(Oc1ccc(Cl)cc1F)C(=O)N1N=CCC1c1ccc(Cl)cc1 (centres unmarked) [QY-8-101] | 692 | 15 | 15 | 5.8 | –
COc1cc(Cl)ccc1OC(C)(C)C(=O)N1CCCC1c1ccc(C)cc1 (centres unmarked) [QY-9-8] | 1.6 | 0.43 | 138 | 0.44 | –
COc1cc(Cl)ccc1OC(C)(C)C(=O)N1N=CCC1c1ccc(Cl)cc1 (centres unmarked) [QY-9-32] | 842 | 26.6 | – | 35.7 | –
